# Legend:
# Assay type in all cases: cell-based
# ZBTB7A = target: T1, ZBTB7A (Homo sapiens, UniProt O95365+Q96SW2); assay: HUDEP-2 ZBTB7A HiBiT degradation assay; conditions: HiBiT-tagged ZBTB7A degradation in HUDEP-2 cells, 24 hours of treatment; read-out: ZBTB7A EC50
# T1 construct: HUDEP-2 cells engineered to express a HiBiT tag in either the WIZ (Widely interspaced zinc finger) or ZBTB7A
# Summary of the method: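 HiBiT-tagged HUDEP-2 cells were pre-cultured 48 h in IMDM with EPO, SCF, doxycycline and 5% human plasma, then exposed to compounds at 1.0×10^6 cells/ml for 24 h at 37 °C. Nano-Glo HiBiT lytic luminescence, normalised to DMSO over 10 concentrations, gave EC50 and Y-min.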
# WIZ = target: T2, WIZ (Homo sapiens, UniProt O95785+Q96SW2); assay: HUDEP-2 WIZ HiBiT degradation assay; conditions: HiBiT-tagged WIZ degradation in HUDEP-2 cells, 24 hours of treatment; read-out: WIZ EC50
# T2 construct: HUDEP-2 cells engineered to express a HiBiT tag in either the WIZ (Widely interspaced zinc finger) or ZBTB7A
# T2 sequence (O95785 whole entry): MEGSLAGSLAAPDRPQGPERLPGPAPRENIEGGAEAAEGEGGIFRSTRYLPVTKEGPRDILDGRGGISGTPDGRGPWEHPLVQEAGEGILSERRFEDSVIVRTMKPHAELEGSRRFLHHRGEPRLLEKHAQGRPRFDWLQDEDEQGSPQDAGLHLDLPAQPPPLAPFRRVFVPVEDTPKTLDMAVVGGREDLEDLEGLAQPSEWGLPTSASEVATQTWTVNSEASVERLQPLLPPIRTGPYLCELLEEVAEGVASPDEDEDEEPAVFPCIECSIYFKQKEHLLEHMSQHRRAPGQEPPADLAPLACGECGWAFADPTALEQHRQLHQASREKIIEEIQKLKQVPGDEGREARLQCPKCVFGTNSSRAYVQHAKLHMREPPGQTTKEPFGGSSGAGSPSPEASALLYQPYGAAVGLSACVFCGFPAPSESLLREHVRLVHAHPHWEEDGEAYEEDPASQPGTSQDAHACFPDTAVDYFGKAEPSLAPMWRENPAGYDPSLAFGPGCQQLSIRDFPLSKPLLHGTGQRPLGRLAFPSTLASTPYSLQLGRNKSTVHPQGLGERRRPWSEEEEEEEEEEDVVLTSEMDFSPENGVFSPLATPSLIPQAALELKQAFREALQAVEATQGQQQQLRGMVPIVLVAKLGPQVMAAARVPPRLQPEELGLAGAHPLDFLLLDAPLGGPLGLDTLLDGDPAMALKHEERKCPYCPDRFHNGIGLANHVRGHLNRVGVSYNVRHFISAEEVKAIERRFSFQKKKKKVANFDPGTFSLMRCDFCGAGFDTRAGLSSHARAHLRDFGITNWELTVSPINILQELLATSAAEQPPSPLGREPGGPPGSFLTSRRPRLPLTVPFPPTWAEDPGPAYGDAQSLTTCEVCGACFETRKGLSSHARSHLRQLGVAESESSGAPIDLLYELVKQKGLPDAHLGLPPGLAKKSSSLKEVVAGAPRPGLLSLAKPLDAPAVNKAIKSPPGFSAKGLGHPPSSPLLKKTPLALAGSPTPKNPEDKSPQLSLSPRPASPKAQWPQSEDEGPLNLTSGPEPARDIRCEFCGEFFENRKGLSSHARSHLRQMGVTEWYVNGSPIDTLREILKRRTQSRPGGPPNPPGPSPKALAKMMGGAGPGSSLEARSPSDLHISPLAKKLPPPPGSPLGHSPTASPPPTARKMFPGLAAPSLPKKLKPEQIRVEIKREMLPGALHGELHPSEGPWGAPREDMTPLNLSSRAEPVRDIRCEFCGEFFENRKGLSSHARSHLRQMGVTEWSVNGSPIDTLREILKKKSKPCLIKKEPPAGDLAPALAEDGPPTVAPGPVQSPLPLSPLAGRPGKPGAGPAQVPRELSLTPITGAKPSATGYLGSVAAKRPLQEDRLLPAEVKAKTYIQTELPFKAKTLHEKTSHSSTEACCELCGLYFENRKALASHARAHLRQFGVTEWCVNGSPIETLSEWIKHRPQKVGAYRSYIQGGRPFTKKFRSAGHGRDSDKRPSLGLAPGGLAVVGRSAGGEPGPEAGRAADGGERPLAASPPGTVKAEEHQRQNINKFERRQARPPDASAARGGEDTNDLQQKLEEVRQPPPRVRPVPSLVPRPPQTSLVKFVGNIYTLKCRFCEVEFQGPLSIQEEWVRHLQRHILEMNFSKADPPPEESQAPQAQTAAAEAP
# T2 sequence (Q96SW2 whole entry): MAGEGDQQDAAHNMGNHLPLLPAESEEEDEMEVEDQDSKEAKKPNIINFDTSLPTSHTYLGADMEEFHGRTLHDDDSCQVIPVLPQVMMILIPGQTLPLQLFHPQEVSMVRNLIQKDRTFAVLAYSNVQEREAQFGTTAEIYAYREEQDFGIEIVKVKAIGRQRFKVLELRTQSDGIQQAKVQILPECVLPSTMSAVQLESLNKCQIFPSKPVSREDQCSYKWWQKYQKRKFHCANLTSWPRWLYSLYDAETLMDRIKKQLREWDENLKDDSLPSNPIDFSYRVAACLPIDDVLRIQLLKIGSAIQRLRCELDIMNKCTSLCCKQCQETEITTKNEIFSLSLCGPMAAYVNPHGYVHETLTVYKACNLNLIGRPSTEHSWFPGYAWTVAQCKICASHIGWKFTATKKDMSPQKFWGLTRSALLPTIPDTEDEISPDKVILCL
# T2 sequence (Q16531 whole entry partner): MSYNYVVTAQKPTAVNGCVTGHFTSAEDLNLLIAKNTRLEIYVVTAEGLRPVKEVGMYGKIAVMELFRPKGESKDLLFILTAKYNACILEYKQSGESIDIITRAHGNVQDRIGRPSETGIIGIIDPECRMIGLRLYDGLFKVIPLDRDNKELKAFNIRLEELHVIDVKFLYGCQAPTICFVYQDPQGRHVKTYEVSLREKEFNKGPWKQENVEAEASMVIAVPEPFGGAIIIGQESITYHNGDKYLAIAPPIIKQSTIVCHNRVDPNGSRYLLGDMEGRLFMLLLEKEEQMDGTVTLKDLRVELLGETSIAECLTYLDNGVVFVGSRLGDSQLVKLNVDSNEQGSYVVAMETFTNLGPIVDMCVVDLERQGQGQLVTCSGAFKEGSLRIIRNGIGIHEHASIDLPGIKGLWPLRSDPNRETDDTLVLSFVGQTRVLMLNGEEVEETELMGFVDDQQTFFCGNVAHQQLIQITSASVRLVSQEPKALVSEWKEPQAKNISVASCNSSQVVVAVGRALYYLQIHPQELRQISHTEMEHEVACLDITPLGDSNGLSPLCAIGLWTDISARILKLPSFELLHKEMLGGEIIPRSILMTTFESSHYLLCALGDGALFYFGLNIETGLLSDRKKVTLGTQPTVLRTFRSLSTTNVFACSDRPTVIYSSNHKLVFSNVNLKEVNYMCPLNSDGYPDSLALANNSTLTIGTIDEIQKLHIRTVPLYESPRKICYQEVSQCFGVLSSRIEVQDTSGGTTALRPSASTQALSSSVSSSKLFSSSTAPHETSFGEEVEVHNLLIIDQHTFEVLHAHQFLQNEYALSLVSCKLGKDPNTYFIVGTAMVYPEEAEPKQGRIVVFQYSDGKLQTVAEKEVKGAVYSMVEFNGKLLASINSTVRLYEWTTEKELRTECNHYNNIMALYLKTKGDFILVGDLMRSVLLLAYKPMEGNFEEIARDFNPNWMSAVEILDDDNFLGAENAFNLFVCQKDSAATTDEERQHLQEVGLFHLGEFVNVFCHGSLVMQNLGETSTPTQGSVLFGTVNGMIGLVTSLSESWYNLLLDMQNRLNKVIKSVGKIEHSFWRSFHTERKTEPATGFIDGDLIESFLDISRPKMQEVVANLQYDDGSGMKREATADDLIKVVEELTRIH
# Summary of the method: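 HiBiT-tagged HUDEP-2 cells at 1.0×10^6 cells/ml in SFEM II with SCF, EPO, dexamethasone and doxycycline, treated 24 h at 37 °C with a 10-point series ([…]). Luminescence after HiBiT lytic detection, normalized to DMSO; EC50 and Y-min from fitted curves.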
# HbF = HbF HiBiT induction assay in HUDEP-2 cells; conditions: HUDEP-2 cells with HiBiT tag in HBG1/2, 72 hours of treatment; area under the dose response curve, higher AUC = greater HbF induction
# Summary of the method: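 HUDEP-2 cells carrying a HiBiT tag on HBG1/2 were exposed to compounds for 72 h at 37° C, 5% CO2, in IMDM with EPO, hSCF, DOX, transferrin, insulin, heparin and 5% human plasma. HiBiT luminescence was read after lytic detection; HbF induction is expressed as dose-response AUC, alongside EC50 and Ymax.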
# T1 sequence (O95365 whole entry): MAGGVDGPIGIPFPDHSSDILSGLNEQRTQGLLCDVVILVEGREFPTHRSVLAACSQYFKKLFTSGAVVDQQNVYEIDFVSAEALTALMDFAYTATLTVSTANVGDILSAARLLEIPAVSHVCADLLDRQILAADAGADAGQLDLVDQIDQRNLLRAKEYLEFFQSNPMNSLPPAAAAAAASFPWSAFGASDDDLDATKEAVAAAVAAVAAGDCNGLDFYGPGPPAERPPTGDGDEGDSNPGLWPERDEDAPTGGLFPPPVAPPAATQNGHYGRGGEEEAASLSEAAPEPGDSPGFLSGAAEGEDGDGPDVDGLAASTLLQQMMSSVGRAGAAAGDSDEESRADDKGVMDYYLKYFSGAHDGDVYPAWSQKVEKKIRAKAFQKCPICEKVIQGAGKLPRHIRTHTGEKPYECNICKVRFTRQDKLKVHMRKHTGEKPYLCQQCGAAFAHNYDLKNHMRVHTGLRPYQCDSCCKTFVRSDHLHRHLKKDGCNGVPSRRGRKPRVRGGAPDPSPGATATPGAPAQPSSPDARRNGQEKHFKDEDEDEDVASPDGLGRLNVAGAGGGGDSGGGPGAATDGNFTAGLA
# T1 sequence (Q96SW2 whole entry): as the sequence (Q96SW2 whole entry) above
# T1 sequence (Q16531 whole entry partner): as the sequence (Q16531 whole entry partner) above
DC50 (ZBTB7A) [nM],DC50 (WIZ) [nM],SMILES,HBF AUC (HbF)
15,19,"Cc1cc(-c2cc3c(cc2Nc2cccc4c2C(=O)N([C@H]2CCC(=O)NC2=O)C4=O)N(C)C(=O)OC3C)ccn1 (stereo partly drawn) [Compound 70, 4-((1,4-dimethyl-6-(2-methylpyridin-4-yl)-2-oxo-1,4-dihydro-2H-benzo[d][1,3]oxazin-7-yl)amino)-2-((S)-2,6-dioxopiperidin-3-yl)isoindoline-1,3-dione]",++ (++ = 100 ≤ AUC < 150)
10,16,"COc1ccc(-c2cc3c(cc2Nc2cccc4c2C(=O)N([C@H]2CCC(=O)NC2=O)C4=O)N(C)C(=O)O[C@H]3C)cc1F [Compound 71, 2-((S)-2,6-dioxopiperidin-3-yl)-4-(((S)-6-(3-fluoro-4-methoxyphenyl)-1,4-dimethyl-2-oxo-1,4-dihydro-2H-benzo[d][1,3]oxazin-7-yl)amino)isoindoline-1,3-dione]",++ (++ = 100 ≤ AUC < 150)
21,14,"Cc1cc(-c2cc3c(cc2Nc2cccc4c2C(=O)N([C@H]2CCC(=O)NC2=O)C4=O)N(C)C(=O)OC3C)cc(C)n1 (stereo partly drawn) [Compound 72, 4-((6-(2,6-dimethylpyridin-4-yl)-1,4-dimethyl-2-oxo-1,4-dihydro-2H-benzo[d][1,3]oxazin-7-yl)amino)-2-((S)-2,6-dioxopiperidin-3-yl)isoindoline-1,3-dione]",+++ (+++ = AUC ≥ 150)
11,12,"Cc1cc(-c2cc3c(cc2Nc2cccc4c2C(=O)N([C@H]2CCC(=O)NC2=O)C4=O)N(C)C(=O)O[C@H]3C)c(F)cn1 [Compound 73, 2-((S)-2,6-dioxopiperidin-3-yl)-4-(((S)-6-(5-fluoro-2-methylpyridin-4-yl)-1,4-dimethyl-2-oxo-1,4-dihydro-2H-benzo[d][1,3]oxazin-7-yl)amino)isoindoline-1,3-dione]",++ (++ = 100 ≤ AUC < 150)
10,11,"Cc1cc(-c2cc3c(cc2Nc2cccc4c2C(=O)N([C@H]2CCC(=O)NC2=O)C4=O)N(C)C(=O)O[C@@H]3C)c(F)cn1 [Compound 74, 2-((S)-2,6-dioxopiperidin-3-yl)-4-(((R)-6-(5-fluoro-2-methylpyridin-4-yl)-1,4-dimethyl-2-oxo-1,4-dihydro-2H-benzo[d][1,3]oxazin-7-yl)amino)isoindoline-1,3-dione]",++ (++ = 100 ≤ AUC < 150)
75,37,"CC(=O)N1CCC(c2cc3c(cc2Nc2cccc4c2C(=O)N([C@H]2CCC(=O)NC2=O)C4=O)N(C)C(=O)OC3C)CC1 (stereo partly drawn) [Compound 75, 4-((6-(1-acetylpiperidin-4-yl)-1,4-dimethyl-2-oxo-1,4-dihydro-2H-benzo[d][1,3]oxazin-7-yl)amino)-2-((S)-2,6-dioxopiperidin-3-yl)isoindoline-1,3-dione]",++ (++ = 100 ≤ AUC < 150)
65,22,"COc1cc(-c2c(Nc3cccc4c3C(=O)N([C@H]3CCC(=O)NC3=O)C4=O)cc3c(c2F)OCC(=O)N3C)c(F)cn1 [Compound 76, 2-((S)-2,6-dioxopiperidin-3-yl)-4-((8-fluoro-7-(5-fluoro-2-methoxypyridin-4-yl)-4-methyl-3-oxo-3,4-dihydro-2H-benzo[b][1,4]oxazin-6-yl)amino)isoindoline-1,3-dione]",+ (+ = 15 ≤ AUC < 100)
102,112,"Cc1cc(-c2c(Nc3cccc4c3C(=O)N(C3CCC(=O)NC3=O)C4=O)cc3c(c2F)OCC(=O)N3C)cc(C(F)F)n1 (stereo not drawn) [Compound 77, 4-((7-(2-(difluoromethyl)-6-methylpyridin-4-yl)-8-fluoro-4-methyl-3-oxo-3,4-dihydro-2H-benzo[b][1,4]oxazin-6-yl)amino)-2-(2,6-dioxopiperidin-3-yl)isoindoline-1,3-dione]",+ (+ = 15 ≤ AUC < 100)
70,76,"Cc1cc(-c2c(Nc3cccc4c3C(=O)N(C3CCC(=O)NC3=O)C4=O)cc3c(c2F)OCC(=O)N3C)cc(C(F)F)n1 (stereo not drawn) [Compound 78, 4-((7-(2-(difluoromethyl)-6-methylpyridin-4-yl)-8-fluoro-4-methyl-3-oxo-3,4-dihydro-2H-benzo[b][1,4]oxazin-6-yl)amino)-2-(2,6-dioxopiperidin-3-yl)isoindoline-1,3-dione]",++ (++ = 100 ≤ AUC < 150)
28,27,"Cc1cc(-c2c(Nc3cccc4c3C(=O)N([C@H]3CCC(=O)NC3=O)C4=O)cc3c(c2F)C(C)OC(=O)N3C)ccn1 (stereo partly drawn) [Compound 79, 2-((S)-2,6-dioxopiperidin-3-yl)-4-((5-fluoro-1,4-dimethyl-6-(2-methylpyridin-4-yl)-2-oxo-1,4-dihydro-2H-benzo[d][1,3]oxazin-7-yl)amino)isoindoline-1,3-dione]",+ (+ = 15 ≤ AUC < 100)
38,29,"Cc1cc(-c2c(Nc3cccc4c3C(=O)N(C3CCC(=O)NC3=O)C4=O)cc3c(c2F)OCC(=O)N3C)ccn1 (stereo not drawn) [Compound 80, 2-(2,6-dioxopiperidin-3-yl)-4-((8-fluoro-4-methyl-7-(2-methylpyridin-4-yl)-3-oxo-3,4-dihydro-2H-benzo[b][1,4]oxazin-6-yl)amino)isoindoline-1,3-dione]",++ (++ = 100 ≤ AUC < 150)
28,24,"Cc1cc(-c2c(Nc3cccc4c3C(=O)N(C3CCC(=O)NC3=O)C4=O)cc3c(c2F)OCC(=O)N3C)ccn1 (stereo not drawn) [Compound 81, 2-(2,6-dioxopiperidin-3-yl)-4-((8-fluoro-4-methyl-7-(2-methylpyridin-4-yl)-3-oxo-3,4-dihydro-2H-benzo[b][1,4]oxazin-6-yl)amino)isoindoline-1,3-dione]",++ (++ = 100 ≤ AUC < 150)
19,54,"Cc1cc(-c2c(Nc3cccc4c3C(=O)N([C@H]3CCC(=O)NC3=O)C4=O)cc3c(c2F)[C@@H](C)OC(=O)N3C)c(F)cn1 [Compound 82, 2-((S)-2,6-dioxopiperidin-3-yl)-4-(((4R)-5-fluoro-6-(5-fluoro-2-methylpyridin-4-yl)-1,4-dimethyl-2-oxo-1,4-dihydro-2H-benzo[d][1,3]oxazin-7-yl)amino)isoindoline-1,3-dione]",++ (++ = 100 ≤ AUC < 150)
13,8,"Cc1cc(-c2cc3c(cc2Nc2cccc4c2C(=O)N(C2CCC(=O)NC2=O)C4=O)N(C)C(=O)CC3(C)C)ccn1 (stereo not drawn) [Compound 83, 2-(2,6-dioxopiperidin-3-yl)-4-((1,4,4-trimethyl-6-(2-methylpyridin-4-yl)-2-oxo-1,2,3,4-tetrahydroquinolin-7-yl)amino)isoindoline-1,3-dione]",+ (+ = 15 ≤ AUC < 100)
19,7,"CC(=O)N1CCC(c2cc3c(cc2Nc2cccc4c2C(=O)N(C2CCC(=O)NC2=O)C4=O)N(C)C(=O)CC3)CC1 (stereo not drawn) [Compound 84, 4-((6-(1-acetylpiperidin-4-yl)-1-methyl-2-oxo-1,2,3,4-tetrahydroquinolin-7-yl)amino)-2-(2,6-dioxopiperidin-3-yl)isoindoline-1,3-dione]",+++ (+++ = AUC ≥ 150)
48,9,"Cc1cc(-c2cc3c(cc2Nc2cccc4c2C(=O)N([C@H]2CCC(=O)NC2=O)C4=O)N(C)C(=O)[C@@H](C)C3)ccn1 [Compound 86, 4-(((S)-1,3-dimethyl-6-(2-methylpyridin-4-yl)-2-oxo-1,2,3,4-tetrahydroquinolin-7-yl)amino)-2-((S)-2,6-dioxopiperidin-3-yl)isoindoline-1,3-dione]",+ (+ = 15 ≤ AUC < 100)
16,12,"Cc1cc(-c2cc3c(cc2Nc2cccc4c2C(=O)N([C@H]2CCC(=O)NC2=O)C4=O)N(C)C(=O)[C@H](C)C3)ccn1 [Compound 87, 4-(((R)-1,3-dimethyl-6-(2-methylpyridin-4-yl)-2-oxo-1,2,3,4-tetrahydroquinolin-7-yl)amino)-2-((S)-2,6-dioxopiperidin-3-yl)isoindoline-1,3-dione]",+ (+ = 15 ≤ AUC < 100)
60,8,"Cc1cc(-c2cc3c(cc2Nc2cccc4c2C(=O)N([C@H]2CCC(=O)NC2=O)C4=O)N(C2CC2)C(=O)CC3)ccn1 [Compound 88, (S)-4-((1-cyclopropyl-6-(2-methylpyridin-4-yl)-2-oxo-1,2,3,4-tetrahydroquinolin-7-yl)amino)-2-(2,6-dioxopiperidin-3-yl)isoindoline-1,3-dione]",+ (+ = 15 ≤ AUC < 100)
13,14,"CCN1C(=O)CCc2cc(-c3ccnc(C)c3)c(Nc3cccc4c3C(=O)N([C@H]3CCC(=O)NC3=O)C4=O)cc21 [Compound 89, (S)-2-(2,6-dioxopiperidin-3-yl)-4-((1-ethyl-6-(2-methylpyridin-4-yl)-2-oxo-1,2,3,4-tetrahydroquinolin-7-yl)amino)isoindoline-1,3-dione]",+ (+ = 15 ≤ AUC < 100)

# — US20250333407A1, “Compounds and Their Use for Treatment of Hemoglobinopathies” (Bristol-Myers Squibb Company, priority 2024, published 2025)
